In patent US10316021B2, “Heteroarylphenoxy benzamide kappa opioid ligands” (Pfizer Inc., priority 2016, dated 2019):
Where two headings read alike, the source gives them in different places.

Experiments:
[1] = target: T1, human kappa opioid receptor (hKOR) (Homo sapiens, UniProt P41145); assay: Kappa radioligand binding assay ([3H]diprenorphine, CHO cell membranes); settings: for Selectivity hMOR/hKOR: selectivity ratio calculated by dividing the hMOR Ki by the hKOR Ki
T1 construct: expressed in transfected cells; host or cells: CHO cells
In short: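 Membranes from CHO cells expressing human kappa receptor incubated 1 h at room temperature with compound and 0.6 nM [3H]diprenorphine in 50 mM Tris pH 7.4, 1 mM EDTA, 5 mM MgCl2. Nonspecific binding defined with 10 μM naltrexone; filtration, scintillation counting; IC50 from 4-parameter fit converted to Ki via Cheng-Prusoff.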

[2] = target: T2, human mu opioid receptor (hMOR) (Homo sapiens, UniProt P35372); assay: Mu radioligand binding assay ([3H]diprenorphine, CHO cell membranes); settings: read-out: hMOR binding assay Ki
T2 construct: expressed in transfected cells; host or cells: CHO cells
In short: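 Membranes from CHO cells expressing human mu receptor were incubated 1 h at room temperature with [3H]diprenorphine (0.5 nM final) in Tris pH 7.4 buffer with EDTA and MgCl2; naltrexone (10 μM) defined non-specific binding. Filter-bound radioactivity was counted; Ki derived by Cheng-Prusoff from IC50.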

[3] = In vitro intrinsic clearance in human liver microsomes; type: in vitro ADME; settings: for CLint scaled at 2 μM: human, read-out: HLM CLint
Description: Determination of In Vitro Intrinsic Clearance in Human Liver Microsomes:
Compounds were prepared as solutions in methanol. The final concentration of methanol in the incubation media was 0.2% (v/v). […] The total incubation volume was 1 mL. The reaction mixture was pre-warmed at 37° C. for 2 min before adding NADPH (1.2 mM). Aliquots (75 μL) of the reaction mixture at 0, 5, 10, 15, and 30 min were added to acetonitrile (200 μL) containing internal standard (terfenadine)(0.05 μg/mL), and the samples were centrifuged at 2500 g for 5 min prior to liquid chromatography/tandem mass spectrometry (LC/MS-MS) analysis of each compound using multiple reaction monitoring (MRM). For control experiments, NADPH was omitted from these incubations.
The microsomal half-life (t1/2) was obtained from a log-linear plot of the substrate depletion vs incubation time and was scaled to hepatic intrinsic clearance (CLint) using the following equation, in which the term t1/2 refers to the in vitro half-life: […]

[4] = system: THLE-2 (transformed human liver epithelial) cells; assay: Transformed human liver epithelial (THLE) assay, ATP depletion 72 h; type: cell-based; settings: for IC50: Homo sapiens, read-out: THLE; for cytotoxicity in THLE cell line, in words: cellular ATP
Description: Transformed Human Liver […] (THLE) Assay:
ATP depletion was measured after 72 hours of exposure to a particular concentration of the chemical. […] Cells were cultured in T175 Human fibronectin/collagen/bovine serum albumin coated flasks. […] Plates were incubated for 24 hours at 37° C., 5% CO2.
All compounds were initially solubilized in 100% DMSO. This dosing scheme contained 32 compounds per plate. Stock plates were prepared using 1 μl aliquots of 100× compound/well (30 mM-0.058 mM). The plates were prepared for dosing by adding 99 μl of cell culture media and mixing. Test compounds were added to cell culture plates by aspirating overnight culture media and replacing with 25 μL/well of media containing test compound using the layout outlined below. The final concentration of DMSO in each well was 1.0%. […] The ATP concentration was determined by reading luminescence using a Wallac Envision plate reader (Perkin Elmer, Waltham, Mass., USA). Percent of viable cells relative to no-drug treated controls was determined for each well.

[5] = system: isolated rat mitochondria; assay: Respirometric screening technology (RST) assay; type: biochemical; settings: for RST inhibitory: inhibition of oxidative phosphorylation
Description: Respirometric Screening Technology (RST) Assay:
This assay was carried out substantially as described in Hynes et al. Toxicological Sciences 91(1), 186-200 (2006). More specifically, the assay conditions were similar to those described for the “Fluorescence-based assay of mitochondrial respiration” at page 188-189 of the Hynes reference.
Mitochondrial dysfunction has also been noted as a characteristic feature of many chronic illnesses, including bipolar disorder, Parkinson's disease, schizophrenia, depression, autism, and chronic fatigue syndrome (Morris 2015). Mitochondrial dysfunction can be assessed by measuring mitochondrial oxygen consumption in isolated rat mitochondria using luminescent oxygen-sensitive probes in a respirometric screening technology (RST) assay (Hynes 2006); both inhibition and uncoupling of oxidative phosphorylation in the RST assay were measured for compounds in Table 23.

[6] = Table 20, radioligand binding, read-out: hKOR binding assay Ki
[7] = pH 7.4, human liver microsomal intrinsic clearance
[8] = Table 19, geometric mean of 2-6 determinations unless otherwise indicated (Example 3: >=7), read-out: hKOR binding assay Ki
[9] = radioligand binding, [3H]diprenorphine, read-out: hKOR Ki
[10] = Table 19, geometric mean of 2-6 determinations unless otherwise indicated (Example 3: >=7)
[11] = THLE-2, ATP cell viability, 72 hours

T1 sequence (P41145 whole entry): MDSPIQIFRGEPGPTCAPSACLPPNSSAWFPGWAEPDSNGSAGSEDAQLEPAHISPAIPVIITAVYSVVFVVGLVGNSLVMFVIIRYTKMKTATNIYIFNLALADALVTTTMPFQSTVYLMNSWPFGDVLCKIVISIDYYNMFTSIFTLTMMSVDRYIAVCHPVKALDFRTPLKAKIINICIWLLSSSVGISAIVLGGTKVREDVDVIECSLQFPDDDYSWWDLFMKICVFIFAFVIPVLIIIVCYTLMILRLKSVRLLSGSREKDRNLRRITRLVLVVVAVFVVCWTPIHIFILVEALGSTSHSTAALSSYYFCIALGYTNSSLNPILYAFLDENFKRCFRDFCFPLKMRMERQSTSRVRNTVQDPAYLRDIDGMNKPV
T2 sequence (P35372 whole entry): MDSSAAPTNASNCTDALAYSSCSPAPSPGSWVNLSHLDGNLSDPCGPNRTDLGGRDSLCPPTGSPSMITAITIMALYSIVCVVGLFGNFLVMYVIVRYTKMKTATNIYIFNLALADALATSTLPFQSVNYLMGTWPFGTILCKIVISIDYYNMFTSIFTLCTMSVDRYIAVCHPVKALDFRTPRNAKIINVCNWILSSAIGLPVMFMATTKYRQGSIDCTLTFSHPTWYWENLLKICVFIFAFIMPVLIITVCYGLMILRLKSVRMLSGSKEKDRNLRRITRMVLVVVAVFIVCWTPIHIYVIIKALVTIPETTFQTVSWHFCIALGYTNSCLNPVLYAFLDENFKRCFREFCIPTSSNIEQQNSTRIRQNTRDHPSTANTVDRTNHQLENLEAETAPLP

SMILES	Ki [1, 6]	CLint scaled at 2 μM [3, 7]	Ki [1, 8]	Ki [1, 9]	Ki [2, 10]	CLint scaled at 2 μM ([3]; pH 7.4, human liver microsomes)	activity in the RST assay (inhibition / uncoupling of oxidative phosphorylation), in words [5]	Selectivity hMOR/hKOR [1]	Ki ([2]; Table 20, radioligand binding)	IC50 ([4]; THLE-2, 72 h)	RST inhibitory [5]	selectivity for KOR over MOR, in words [1]	hepatic / metabolic clearance in human liver microsomes, in words [3]	cytotoxicity in THLE cell line, in words ([4]; 72 hours)	IC50 [4, 11]	Ki ([1]; hKOR binding assay Ki, Table 20, radioligand binding)
NC(=O)c1ccc(Oc2ccc(CN3CCCC3c3ccccc3)cc2)nc1 (centres unmarked) [Comparator D]	0.0058 µM	45 mL/min/kg						28	0.163 µM	179 µM	No effect					
NC(=O)c1ccc(Oc2ccc(CN3CCC(c4ccccc4)C3)cc2)nc1 (centres unmarked) [Comparator A, reference compound]	0.0031 µM	20 mL/min/kg						0.03	0.0001 µM						> 300 µM	
Cc1nn(C)cc1[C@@H]1CCCN1Cc1ccc(Oc2ccc(C(N)=O)cc2)cc1 [Example 11, 4-(4-{[(2S)-2-(1,3-Dimethyl-1H-pyrazol-4-yl)pyrrolidin-1-yl]methyl}phenoxy)benzamide]	0.0012 µM	20 mL/min/kg	0.00121 µM	0.001 to 0.003 µM	0.051 µM	< 20 mL/min/kg	no significant activity	42	0.051 µM	> 300 µM	No effect	more selective than the phenyl examples, Comparators A and B	surprisingly low intrinsic metabolic turnover rates	little to no cytotoxicity		
NC(=O)c1ccc(Oc2ccc(CN3CCC[C@H]3c3cccc(F)c3)cc2)c(F)c1 [Comparator F]		36 mL/min/kg						35	0.0375 µM	37 µM	66 µM			cytotoxicity at lower concentrations		0.0011 µM
Cc1cc(C)cc([C@@H]2CCCN2Cc2ccc(Oc3ccc(C(N)=O)cc3F)cc2)c1 [Comparator E, reference compound]	0.0002 µM	30 mL/min/kg					μM inhibitory activity	39	0.0078 µM		19 µM			cytotoxicity at lower concentrations	26 µM	

Further lines, with some results ahead:

Ki [1, 6]	CLint scaled at 2 μM [3, 7]	Ki [1, 8]	Ki [1, 9]	Ki [2, 10]	CLint scaled at 2 μM ([3]; pH 7.4, human liver microsomes)	activity in the RST assay (inhibition / uncoupling of oxidative phosphorylation), in words [5]	SMILES	Selectivity hMOR/hKOR [1]	Ki ([2]; Table 20, radioligand binding)	IC50 ([4]; THLE-2, 72 h)	RST inhibitory [5]	selectivity for KOR over MOR, in words [1]	hepatic / metabolic clearance in human liver microsomes, in words [3]	cytotoxicity in THLE cell line, in words ([4]; 72 hours)	IC50 [4, 11]	Ki ([1]; hKOR binding assay Ki, Table 20, radioligand binding)
0.0026 µM	12 mL/min/kg	0.00256 µM	0.001 to 0.003 µM	0.0987 µM	< 20 mL/min/kg	no significant activity	COc1nn(C)cc1C1CCCN1Cc1ccc(Oc2ccc(C(N)=O)cc2F)cc1 (single isomer, unassigned; (-)) [Example 8, (−)-3-Fluoro-4-(4-{[2-(3-methoxy-1-methyl-1H-pyrazol-4-yl)pyrrolidin-1-yl]methyl}phenoxy)benzamide]	37	0.099 µM		No effect	more selective than the phenyl examples, Comparators A and B	surprisingly low intrinsic metabolic turnover rates	little to no cytotoxicity	> 300 µM	
0.0012 µM	320 mL/min/kg					μM inhibitory activity	NC(=O)c1ccc(Oc2ccc(CN3CCCC3c3cccnc3)cc2)c(Cl)c1 (centres unmarked) [Comparator C]	17	0.021 µM		21 µM		high hepatic clearance		177 µM	
	89 mL/min/kg						NC(=O)c1ccc(Oc2ccc(CN3CCCCC3c3ccccc3)cc2)nc1 (centres unmarked) [Comparator B]				No effect		high hepatic clearance		224 µM	
0.0015 µM	8 mL/min/kg	0.00147 µM	0.001 to 0.003 µM	0.0462 µM	< 20 mL/min/kg	no significant activity	COc1nn(C)cc1[C@@H]1CCCN1Cc1ccc(Oc2ccc(C(N)=O)cc2)cc1 (single isomer, unassigned) [Example 12]	31	0.046 µM		No effect	more selective than the phenyl examples, Comparators A and B	surprisingly low intrinsic metabolic turnover rates	little to no cytotoxicity	> 300 µM	
